# From PubChem BioAssay AID2060331 (Molecular Pharmacology Branch, DTP, NCI, 2025)
# Test system: Hs578T multi-cell spheroids, viability
# Assay: Anticancer human tumor Hs578T cell line growth inhibition [IpAb];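 further: drug exposure lasted 7 days before readout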
# Settings: for IC50: curve of first compound; for viability, T/C: stronger effect = lower value
# In short: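 Spheroids of 60% malignant cells, 25% HUVEC and 15% MSC were exposed to targeted agents combined with ipatasertib or abemaciclib. Doses started at or near clinical Cmax (10 microM when unknown) and fell in half-log steps.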
# [1] = second compound 0.1 µM, first compound 0.0316 µM
# [2] = second compound 0.1 µM, first compound 0.1 µM
# [3] = second compound 0.316 µM, first compound 0.0316 µM
# [4] = second compound 0.316 µM, first compound 0.1 µM
# [5] = second compound 1 µM, first compound 0.0316 µM
# [6] = second compound 1 µM, first compound 0.1 µM
# [7] = second compound 3.16 µM, first compound 0.0316 µM
# [8] = second compound 3.16 µM, first compound 0.1 µM
# [9] = second compound 10 µM, first compound 0.0316 µM
# [10] = second compound 10 µM, first compound 0.1 µM
structure (smiles),measurement,setting,value
CC(C)(C)c1cnc(CSc2cnc(NC(=O)C3CCNCC3)s2)o1 + CC(C)NCC(C(=O)N1CCN(c2ncnc3c2C(C)CC3O)CC1)c1ccc(Cl)cc1,IC50,second compound 0.1 µM,180 nM
same,IC50,second compound 0.316 µM,173 nM
same,IC50,second compound 1 µM,156 nM
same,IC50,second compound 3.16 µM,108 nM
same,IC50,second compound 10 µM,33.3 nM
same,"viability, T/C","second compound 0.1 µM, first compound 0.00949 µM",104%
same,"viability, T/C","second compound 0.1 µM, first compound 0.03 µM",114%
same,"viability, T/C","second compound 0.1 µM, first compound 0.0949 µM",109%
same,"viability, T/C","second compound 0.1 µM, first compound 0.3 µM",2.64%
same,"viability, T/C","second compound 0.1 µM, first compound 0.949 µM",2.52%
same,"viability, T/C","second compound 0.1 µM, first compound 3 µM",3.3%
same,"viability, T/C","second compound 0.316 µM, first compound 0.00949 µM",93.5%
same,"viability, T/C","second compound 0.316 µM, first compound 0.03 µM",104%
same,"viability, T/C","second compound 0.316 µM, first compound 0.0949 µM",107%
same,"viability, T/C","second compound 0.316 µM, first compound 0.3 µM",2.26%
same,"viability, T/C","second compound 0.316 µM, first compound 0.949 µM",2.29%
same,"viability, T/C","second compound 0.316 µM, first compound 3 µM",2.23%
same,"viability, T/C","second compound 1 µM, first compound 0.00949 µM",80.7%
same,"viability, T/C","second compound 1 µM, first compound 0.03 µM",88.7%
same,"viability, T/C","second compound 1 µM, first compound 0.0949 µM",89.5%
same,"viability, T/C","second compound 1 µM, first compound 0.3 µM",2.31%
same,"viability, T/C","second compound 1 µM, first compound 0.949 µM",2.45%
same,"viability, T/C","second compound 1 µM, first compound 3 µM",2.32%
same,"viability, T/C","second compound 3.16 µM, first compound 0.00949 µM",60.5%
same,"viability, T/C","second compound 3.16 µM, first compound 0.03 µM",69.6%
same,"viability, T/C","second compound 3.16 µM, first compound 0.0949 µM",56.1%
same,"viability, T/C","second compound 3.16 µM, first compound 0.3 µM",2.25%
same,"viability, T/C","second compound 3.16 µM, first compound 0.949 µM",3.36%
same,"viability, T/C","second compound 3.16 µM, first compound 3 µM",3.32%
same,"viability, T/C","second compound 10 µM, first compound 0.00949 µM",49.3%
same,"viability, T/C","second compound 10 µM, first compound 0.03 µM",57.7%
same,"viability, T/C","second compound 10 µM, first compound 0.0949 µM",14.8%
same,"viability, T/C","second compound 10 µM, first compound 0.3 µM",1.74%
same,"viability, T/C","second compound 10 µM, first compound 0.949 µM",2.09%
same,"viability, T/C","second compound 10 µM, first compound 3 µM",2.94%
Cn1nccc1Nc1nccc(-c2ccn(C(CO)c3ccc(Cl)c(F)c3)c(=O)c2)n1 (stereo not given) + CC(C)NCC(C(=O)N1CCN(c2ncnc3c2C(C)CC3O)CC1)c1ccc(Cl)cc1,IC50,second compound 0.1 µM,4560 nM
same,IC50,second compound 0.316 µM,2610 nM
same,IC50,second compound 1 µM,1520 nM
same,IC50,second compound 3.16 µM,626 nM
same,IC50,second compound 10 µM,138 nM
same,"viability, T/C",[1],106%
same,"viability, T/C",[2],109%
same,"viability, T/C","second compound 0.1 µM, first compound 0.316 µM",111%
same,"viability, T/C","second compound 0.1 µM, first compound 1 µM",76.8%
same,"viability, T/C","second compound 0.1 µM, first compound 3.16 µM",59.4%
same,"viability, T/C","second compound 0.1 µM, first compound 10 µM",37.9%
same,"viability, T/C",[3],91.5%
same,"viability, T/C",[4],90.5%
same,"viability, T/C","second compound 0.316 µM, first compound 0.316 µM",94.3%
same,"viability, T/C","second compound 0.316 µM, first compound 1 µM",60.9%
same,"viability, T/C","second compound 0.316 µM, first compound 3.16 µM",50.9%
same,"viability, T/C","second compound 0.316 µM, first compound 10 µM",23.6%
same,"viability, T/C",[5],65.8%
same,"viability, T/C",[6],73.5%
same,"viability, T/C","second compound 1 µM, first compound 0.316 µM",77.7%
same,"viability, T/C","second compound 1 µM, first compound 1 µM",54.3%
same,"viability, T/C","second compound 1 µM, first compound 3.16 µM",36.2%
same,"viability, T/C","second compound 1 µM, first compound 10 µM",14.1%
same,"viability, T/C",[7],62.2%
same,"viability, T/C",[8],61.6%
same,"viability, T/C","second compound 3.16 µM, first compound 0.316 µM",61.7%
same,"viability, T/C","second compound 3.16 µM, first compound 1 µM",42.4%
same,"viability, T/C","second compound 3.16 µM, first compound 3.16 µM",16.3%
same,"viability, T/C","second compound 3.16 µM, first compound 10 µM",2.55%
same,"viability, T/C",[9],48.1%
same,"viability, T/C",[10],55.6%
same,"viability, T/C","second compound 10 µM, first compound 0.316 µM",45.6%
same,"viability, T/C","second compound 10 µM, first compound 1 µM",31.1%
same,"viability, T/C","second compound 10 µM, first compound 3.16 µM",3.87%
same,"viability, T/C","second compound 10 µM, first compound 10 µM",0.64%
Cn1ncnc1[C@H]1c2n[nH]c(=O)c3cc(F)cc(c23)N[C@@H]1c1ccc(F)cc1 + CC(C)NCC(C(=O)N1CCN(c2ncnc3c2C(C)CC3O)CC1)c1ccc(Cl)cc1,IC50,second compound 0.1 µM,> 100 nM
same,IC50,second compound 0.316 µM,> 100 nM
same,IC50,second compound 1 µM,> 100 nM
same,IC50,second compound 3.16 µM,0.553 nM
same,IC50,second compound 10 µM,< 0.316 nM
same,"viability, T/C","second compound 0.1 µM, first compound 0.000316 µM",97.6%
same,"viability, T/C","second compound 0.1 µM, first compound 0.001 µM",95.3%
same,"viability, T/C","second compound 0.1 µM, first compound 0.00316 µM",87.9%
same,"viability, T/C","second compound 0.1 µM, first compound 0.01 µM",88.2%
same,"viability, T/C",[1],82.8%
same,"viability, T/C",[2],82.3%
same,"viability, T/C","second compound 0.316 µM, first compound 0.000316 µM",80.7%
same,"viability, T/C","second compound 0.316 µM, first compound 0.001 µM",79.5%
same,"viability, T/C","second compound 0.316 µM, first compound 0.00316 µM",79.9%
same,"viability, T/C","second compound 0.316 µM, first compound 0.01 µM",71.7%
same,"viability, T/C",[3],75.5%
same,"viability, T/C",[4],65.9%
same,"viability, T/C","second compound 1 µM, first compound 0.000316 µM",66.1%
same,"viability, T/C","second compound 1 µM, first compound 0.001 µM",61.3%
same,"viability, T/C","second compound 1 µM, first compound 0.00316 µM",62.6%
same,"viability, T/C","second compound 1 µM, first compound 0.01 µM",60%
same,"viability, T/C",[5],58.6%
same,"viability, T/C",[6],55.1%
same,"viability, T/C","second compound 3.16 µM, first compound 0.000316 µM",49.7%
same,"viability, T/C","second compound 3.16 µM, first compound 0.001 µM",49.4%
same,"viability, T/C","second compound 3.16 µM, first compound 0.00316 µM",50.5%
same,"viability, T/C","second compound 3.16 µM, first compound 0.01 µM",48.3%
same,"viability, T/C",[7],44.9%
same,"viability, T/C",[8],42.3%
same,"viability, T/C","second compound 10 µM, first compound 0.000316 µM",46.1%
same,"viability, T/C","second compound 10 µM, first compound 0.001 µM",42.9%
same,"viability, T/C","second compound 10 µM, first compound 0.00316 µM",44.9%
same,"viability, T/C","second compound 10 µM, first compound 0.01 µM",40.6%
same,"viability, T/C",[9],43.3%
same,"viability, T/C",[10],38.6%
